The values below come from ChEMBL document CHEMBL1201862, “PubChem BioAssay data set” (2004).

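Step 1: Grow cells in 96-well plates. Step 2: Expose to compound for 48 hours at 5 concentrations. Step 3: Interpolate endpoints linearly; if unreached, use highest concentration. GI50: concentration for 50% inhibition of growth.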 Calls of active or inactive are those of the source. No stated cut-off is given here; in the data, active = GI50 up to about 1.1 µM and inactive = higher. Bounds are passed on as bounds.

Assay in all cases: inhibition of tumour cell growth, NCI panel, 48 h
Test [1] concerns MDA-MB-435.
For test [2], the system named is Hs-578T.
The test system of test [3] is SN12C.
For test [4], the system named is HL-60.
For test [5], the system named is ACHN.
Test [6] relates to K562.
The test system of test [7] is SNB-75.
The subject of test [8] is UACC-257.
In test [9] the test system is A498.
For test [10], the system named is HCT-15.
The test system of test [11] is KM12.
For test [12], the system named is IGROV-1.
For test [13], the system named is PC-3.
For test [14], the system named is HCC 2998.
The subject of test [15] is NCI/ADR-RES.
For test [16], the system named is MDA-N.
The subject of test [17] is SF-268.
Test [18] relates to SK-OV-3.
Test [19] concerns EKVX.

With `CC(=O)C1=C(c2ccccc2)N(C2OC(CO)C(O)C(O)C2O)C(S)=C(C#N)C1c1ccc(Cl)cc1` (configuration not stated), the GI50 in test [1] was 23.6 µM (inactive); in [2], 25.8 µM (inactive); in [3], 38.5 µM (inactive); in test [4], 42.4 µM (inactive); in [5], 29.7 µM (inactive); in test [6] it was 32.7 µM (inactive). Moreover, the GI50 is 28.8 µM (inactive) in [7]; 25.4 µM (inactive) in [8]; 38.6 µM (inactive) in [9]; 23 µM in test [10]; 23.2 µM (inactive) in test [11]; 39.7 µM (inactive) in test [12]. The GI50 in test [13] was 22.1 µM (inactive); in test [14], 17.7 µM (inactive); in test [15], 31.4 µM (inactive); in test [16] it was 25.8 µM (inactive); in [17], 24.8 µM (inactive).
For `Nc1ccc(-c2nc3ccccc3s2)cc1C#Cc1ccccc1`, the GI50 in test [1] is 19.1 µM (inactive); in test [18], 24.3 µM (inactive); in test [2], 21.5 µM (inactive); in test [19], 20.7 µM (inactive); in test [3], 18.8 µM (inactive); in test [4], 26.5 µM (inactive). In addition, the GI50 in [5] was 18.8 µM (inactive); in test [6], 31 µM (inactive); in [7] it was 25.3 µM (inactive); in test [8], 16 µM (inactive); in test [9], 21 µM (inactive); in test [10] it was 17.9 µM. For the same compound, the GI50 in test [11] was 16.7 µM (inactive); in test [12] it was 10.7 µM (inactive); in [13], 18.5 µM (inactive); in test [15], 21.4 µM (inactive); in test [16] it was 17.9 µM (inactive); in [17], 21.1 µM (inactive).
As to `COc1ccc(N(C(=O)Nc2ccc(Cl)c(Cl)c2)c2ccccc2)cc1`, the GI50 in test [1], in test [18], in test [2], in test [19], in [3] and in test [4] was > 10 µM (inactive) each time. The GI50 in [5] was > 10 µM (inactive); in [6], > 10 µM (inactive); in test [8], > 10 µM (inactive); in test [9], > 10 µM (inactive); in test [10] it was over 10 µM; in test [11] it was > 10 µM (inactive). For the same compound, the GI50 in [12], in test [13], in [14], in [15], in [16] and in test [17] was > 10 µM (inactive) throughout.
In the case of `N#C/C(C(=O)Nc1ccccc1)=C(/N)N1CCCC1`, the GI50 was > 100 µM (inactive) in test [1]; > 100 µM (inactive) in test [18]; > 100 µM (inactive) in test [2]; 72.3 µM (inactive) in test [19]; > 100 µM (inactive) in [3]; > 100 µM (inactive) in test [4]. Moreover, the GI50 in [5] was > 100 µM (inactive); in test [6] it was > 100 µM (inactive); in [8] it was > 100 µM (inactive); in test [9], > 100 µM (inactive); in test [10], over 100 µM; in test [11], > 100 µM (inactive). Besides, the GI50 in test [12], in test [13], in test [14], in test [15], in test [16] and in test [17] was > 100 µM (inactive) each time.
On to `Cc1cc2nc(-c3cc(C(C)(C)C)c(O)c(C(C)(C)C)c3)[nH]c2cc1C`, for which the GI50 is > 23.3 µM (inactive) in [1]; > 100 µM (inactive) in test [18]; 17.2 µM (inactive) in [2]; > 39.1 µM (inactive) in [19]; 9.62 µM (inactive) in test [3]; 13.8 µM (inactive) in test [4]. Moreover, the GI50 is 3.18 µM (inactive) in [6]; > 100 µM (inactive) in [7]; > 52.2 µM (inactive) in test [8]; > 100 µM (inactive) in [9]; 6.55 µM in test [10]; 3.39 µM (inactive) in test [11]. Moreover, the GI50 is 5.08 µM (inactive) in test [12]; 7.19 µM (inactive) in test [13]; 5.81 µM (inactive) in [14]; > 68.7 µM (inactive) in test [15]; 3.49 µM (inactive) in [16]; 9.62 µM (inactive) in test [17].
For `O=C1C2=Cc3ccccc3CCN2c2ccccc21`, the GI50 in test [1] is 28.7 µM (inactive); in [2], 41 µM (inactive); in test [19], 29 µM (inactive); in test [3], 18.8 µM (inactive); in [4], 18.9 µM (inactive); in [5] it was 17.3 µM (inactive). For the same compound, the GI50 was 12.7 µM (inactive) in [6]; > 100 µM (inactive) in test [7]; 27.2 µM (inactive) in [8]; 16.3 µM (inactive) in test [9]; 25.6 µM in test [10]; 26.7 µM (inactive) in test [11]. In addition, the GI50 was 30.2 µM (inactive) in test [12]; 35.2 µM (inactive) in [13]; 7.31 µM (inactive) in test [14]; 30.1 µM (inactive) in test [15]; > 10 µM (inactive) in test [16]; > 50.8 µM (inactive) in test [17].
For the compound `COC(=O)/C=C/[C@H]1[C@H](C)N1S(=O)(=O)c1ccc(C)cc1` (some centres not stated), the GI50 in test [1] is 56.5 µM (inactive); in test [18], > 100 µM (inactive); in test [2] it was > 100 µM (inactive); in test [19], > 100 µM (inactive); in test [3], > 100 µM (inactive); in test [4], > 99.5 µM (inactive). For the same compound, the GI50 is 89.7 µM (inactive) in test [5]; > 100 µM (inactive) in test [6]; > 100 µM (inactive) in [8]; > 100 µM (inactive) in [9]; over 100 µM in test [10]; > 100 µM (inactive) in [11]. Further, the GI50 in test [12], in [13], in [14], in test [15], in test [16] and in test [17] was > 100 µM (inactive) each time.
As for `O=C1/C(=C/c2ccccc2O)N=C(c2ccccc2)N1C1Nc2cc3c(cc2S1)NC(N1C(=O)/C(=C/c2ccccc2O)N=C1c1ccccc1)S3` (configuration not stated), the GI50 in test [1] is 14.8 µM (inactive); in test [18], 35.8 µM (inactive); in test [2], 30.5 µM (inactive); in test [19] it was 46.7 µM (inactive); in [4], 28.9 µM (inactive); in [5], 21.7 µM (inactive). Further, the GI50 in test [6] was 29.9 µM (inactive); in [8], 66.8 µM (inactive); in [9], 20 µM (inactive); in test [10], 13.5 µM; in test [11], 41.3 µM (inactive); in [12] it was 14.2 µM (inactive). In addition, the GI50 in [13] was 34.4 µM (inactive); in test [14], 33.6 µM (inactive); in test [15] it was 10.5 µM (inactive); in test [16], 14 µM (inactive); in test [17], 16.6 µM (inactive).
